Measurements published in ChEMBL document CHEMBL4428112, “Columnaristerol A, a novel 19-norsterol from the Formosan octocoral Nephthea columnaris” (Bioorg Med Chem Lett, 2016).
Active and inactive are the calls of the source. No cut-off for these calls is given here.

Assays:
Format in all cases: functional, cell-based
K562 [1] = assay: Cytotoxicity against human K562 cells assessed as growth inhibition after 72 hrs by MTT assay; settings: K562, 72 h
SUP-T1 = assay: Cytotoxicity against human SupT1 cells assessed as growth inhibition after 72 hrs by MTT assay; settings: SUP-T1, 72 h
U-937 [2] = assay: Cytotoxicity against human U937 cells assessed as growth inhibition after 72 hrs by MTT assay; settings: U-937, 72 h
MOLT-4 = assay: Cytotoxicity against human MOLT4 cells assessed as growth inhibition after 72 hrs by MTT assay; settings: MOLT-4, 72 h
K562 [3] = assay: Cytotoxicity against human K562 cells assessed as growth inhibition at 20 ug/ml after 72 hrs by MTT assay
U-937 [4] = assay: Cytotoxicity against human U937 cells assessed as growth inhibition at 20 ug/ml after 72 hrs by MTT assay

Structure (SMILES)	IC50 (K562 [1])	IC50 (SUP-T1)	IC50 (U-937 [2])	IC50 (MOLT-4)	growth inhibition (GI) (K562 [3])	growth inhibition (GI) (U-937 [4])
COc1cccc2c1C(=O)c1c(O)c3c(c(O)c1C2=O)C[C@@](O)(C(=O)CO)C[C@@H]3O[C@H]1C[C@H](N)[C@H](O)[C@H](C)O1 [DOXORUBICIN]	280 nM	40 nM	420 nM			
C=C(CC[C@@H](C)[C@H]1CC[C@H]2[C@@H]3CC=C4C[C@@H](O)CC[C@]4(O)[C@H]3CC[C@]12C)C(C)C		25500 nM		18300 nM	inactive	inactive
